Consider 8 compounds from US4678783A, “Substituted isoquinolinesulfonyl compounds” (Asahi Kasei Kogyo Kabushiki Kaisha, priority 1984, dated 1987).

pEC50: −log10 of the molar value. Like-named read-outs stand apart in the source and are kept apart here.

Data set [1] has as its system mesenteric artery of a rabbit. As to the kind of experiment: Relaxation of Mesenteric Artery (KCl-contracted spiral strip). More on the design: species or system rabbit of Japanese local variety. To be noted: Oryctolagus cuniculus. On the procedure: A rabbit of Japanese local variety weighing about 3 kg was subjected to blood-letting to death. Then, abdomen of the rabbit was dissected to pick up a mesenteric artery. […] Thus, the shrinkage and relaxation of the artery was ready to be measured as a load on the transducer. To the organ bath, KCl was added in an amount which makes the artery shrink at a half length that in 15 to 20 mM aqueous solution. Then, hydrochlorides of the compounds of the present invention were added to the organ bath to observe relaxation effect on the artery.
Effect of the compounds of the present invention on relaxation of mesenteric artery was examined according to the method as mentioned hereinbefore.

The test system of data set [2] is male spontaneously hypertensive rats (SHR). As to the kind of experiment: Reduction of Blood Pressure (systolic, tail plethysmographic method, oral). To be noted: 100 mg/kg. Format: in vivo, rat (SHR, Wister Kyoto). On the procedure:
Male spontaneously hypertensive rats (SHR, Wister Kyoto) weighing 300 to 350 g were used. Systolic blood pressure was measured indirectly by the tail plethysmographic method in conscious SHR, just prior to, and 1, 2, 4 and 6 hours after oral administration of test drugs. Test drugs, dissolved in deionized water, were administered orally in a volume of 10 ml-solution/kg-rat. Reduction in systolic blood pressure (ΔP, mmHg) was calculated by substracting a systolic blood pressure after administration from that just prior to administration.
Effect of the compounds of the present invention on reduction of blood pressure was examined according to the method as mentioned hereinbefore.

A further data set relates to femoral artery. In words: Blood Flow Volume Increase of Femoral Artery. Conditions: intravenous, anesthetized dogs. Format: in vivo, Mongrel dogs. On the procedure: (§1) A plethysmographic probe (manufactured and sold by NIHON KODEN CO., LTD.) was mounted on the femoral and vertebral arteries, and blood flow volume was measured by means of a electromagnetic blood flowmeter (type:MF-27, manufactured and sold by NIHON KODEN CO., LTD.). Under these conditions, compounds of the present invention were intravenously administered through a polyethylene tube inserted to a femoral veinlet, and change in blood flow volume was measured by means of the electromagnetic blood flowmeter.
(§2) Effect of the compounds of the present invention on dilation of femoral and vertebral arteries was examined according to the method as mentioned hereinbefore.

The test system of the next data set is vertebral artery. In words: Blood Flow Volume Increase of Vertebral Artery. Format: in vivo, Mongrel dogs. To be noted: intravenous, anesthetized dogs. The protocol:
as §1, §2

The next data set in a line: Acute Toxicity. To be noted: mouse, in vivo; ddY male mice. The protocol:
Acute toxicity of the compounds of the present invention was determined according to the method given below, and the results are shown in Table 15. […] It is known from the results that the acute toxicity of the compounds of the present invention is satisfactorily low.
Using ddY male mice, acute toxicity of the compounds of the present invention was examined according to the method proposed by K. Takagi et al. (K. Takagi and H. Ozawa, "Experimental Techniques in Pharmacology," p200-206 (1960), NANZANDO CO., LTD.).
Acute toxicity test of the compounds of the present invention was effected according to the method as mentioned hereinbefore.

The next data set relates to basilar artery. In words: Effect on a "Two-Hemorrhage" Canine Model of Delayed Cerebral Vasospasm. The format is in vivo, Mongrel dogs. To be noted: intravenous infusion over 30 minutes on Day 7. An excerpt:
The isoquinolinesulfonyl compound represented by the formula (I) and salt thereof with a pharmacologically acceptable acid according to the present invention can increase the diameter of a blood vessel, and have an excellent smooth muscle relaxation action for a blood vessel, an excellent flow volume increase action for blood and an antihypertensive action. […] The above-mentioned relaxation action for a blood vessel was confirmed by the relaxation of the mesenteric artery of a rabbit in accordance with the method described later. The above-mentioned flow volume increase action for blood was confirmed by the blood flow volume increase of dog's femoral and vertebral arteries in accordance with the method described later. The above-mentioned antihypertensive action was confirmed by the indirect tail plethysmographic method of systolic blood pressure after oral administration of test drugs using male spontaneously hypertensive rats in accordance with the method described later. The effects of the isoquinolinesulfonyl derivatives of this invention on a "two-hemorrhage" canine model of delayed cerebral vasospasm were examined. The method of inducing a cerebral vasospasm was the same as that reported by Varsos et al. (Journal of Neurosurgery, volume 58, p11-17, 1983). […] As far as is known, these isoquinolinesulfonyl derivatives are the first drugs which can reverse "two-hemorrhage" cerebral vasospasm by its systemic use.
Mongrel dogs of either sex weighing 7 to 11 kg were used. All procedures were performed under anesthesia with sodium pentobarbital (20 to 30 mg/kg, intravenous administration) after premedication with ketamine hydrochloride (12 mg/kg, intramuscular administration) and spontaneous respiration through an endotracheal intubation.
The method of inducing a "two-hemorrhage" canine model of subarachnoid hemorrhage was essentially the same as that reported by Varsos et al. (Journal of Neurosurgery, volume 58, p 11-17, 1983); two successive administrations were effected, two days apart (on Day 1 and Day 3), of fresh autogenous blood into the cisterna magna. A control angiogram was taken by a direct puncture of the vertebral artery on Day 1 before the blood injection. The second angiogram was made to confirm the presence of a vasospasm on Day 7.
On Day 7, after the occurrence of a chronic vasospasm was confirmed by the second angiogram, the compounds of the present invention were intrvenously infused from the femoral vein with a Harvard pump over a period of 30 minutes. Angiograms were taken from the initiation of the infusion.
The diameter of the basilar artery was measured on the angiogram by means of a microdensitometer (SAKURA DENSITOMETER PD-7R). The effect on this cerebral vasospasm model of the compounds of the present invention was expressed as an increased percentage of the diameter after the infusion of the compounds of the present invention to that before the infusion.
Effect of the compounds of the present invention on a "two-hemorrhage" canine model of delayed cerebral vesospasm was examined according to the method as mentioned hereinbefore.

Where [3] appears, read: concentration of the hydrochloride attaining 50% of complete relaxation, rabbit mesenteric artery contracted with KCl, read-out: ED50 (the source's name).

By LD50 is commonly meant the dose expected to kill half of the subjects tested. Read a high LD50 as lower toxicity. In the case of `CC1CN(S(=O)(=O)c2cccc3cnccc23)CCCN1` (centres unmarked) [(3), 1-(5-isoquinolinesulfonyl)-3-methylhomopiperazine], the pEC50 in data set [1] (setting [3]) is 5.80. In addition, in data set [2], the “ΔPmax (maximally reduced blood pressure)” value was found to be 65 mmHg. The “Increase in femoral artery blood flow” value with femoral artery (0.3 mg/kg) was found to be 35%. Further, the “Increase in vertebral artery blood flow” value in the data set with vertebral artery (0.3 mg/kg) is 78%. Besides, in “Acute Toxicity”, the median lethal dose (LD50) stood at 120 mg/kg.
For `O=S(=O)(c1cccc2cnccc12)N1CCCNCC1` [Compound (1), 1-(5-isoquinolinesulfonyl)homopiperazine], the pEC50 in data set [1] (setting [3]) is 6.10. In addition, the “ΔPmax (maximally reduced blood pressure)” value in data set [2] is recorded as 80 mmHg. Also, the “Increase in femoral artery blood flow” value with femoral artery (0.3 mg/kg) worked out at 48%. Besides, the “Increase in vertebral artery blood flow” value in the data set on vertebral artery (0.3 mg/kg) stood at 160%. Moreover, the “Increase in diameter of basilar artery” value with basilar artery (1 mg/kg) worked out at 21%; in the data set on basilar artery (3 mg/kg), 33%; in the data set on basilar artery (10 mg/kg), 45%. In the data set “Acute Toxicity”, this compound displayed a 50% lethal dose (LD50) of 73.5 mg/kg.
`O=S(=O)(c1cccc2cnccc12)N1CCNCC(Cc2ccccc2)C1` (centres unmarked) [Compound (18), 1-(5-isoquinolinesulfonyl)-6-benzylhomopiperazine]: the pEC50 in data set [1] (setting [3]) was 5.00. For the same compound, the “ΔPmax (maximally reduced blood pressure)” value in data set [2] came out at 43 mmHg. Also, the “Increase in femoral artery blood flow” value in the data set with femoral artery (0.3 mg/kg) was determined as 45%. Also, the “Increase in vertebral artery blood flow” value in the data set on vertebral artery (0.3 mg/kg) is reported as 110%. Moreover, the LD50 in the data set “Acute Toxicity” was found to be 197 mg/kg.
With `N=C(N)NCCNS(=O)(=O)c1cccc2c(Cl)nccc12` [Compound (31), N-(2-guanidinoethyl)-1-chloro-5-isoquinolinesulfonamide], in data set [1] (setting [3]), the pEC50 is 5.70. For the same compound, in data set [2], the “ΔPmax (maximally reduced blood pressure)” value was 40 mmHg. This compound also registered an LD50 in “Acute Toxicity” of 160 mg/kg.
As to `N=C(N)NCCNS(=O)(=O)c1cccc2c(O)nccc12` [Compound (54), N-(2-guanidinoethyl)-1-hydroxy-5-isoquinolinesulfonamide], the pEC50 in data set [1] (setting [3]) was 4.74. For the same compound, the “ΔPmax (maximally reduced blood pressure)” value in data set [2] is given as 40 mmHg. Further, the 50% lethal dose (LD50) in “Acute Toxicity” was 135 mg/kg.
With `O=S(=O)(c1cccc2c(O)nccc12)N1CCCNCC1` [Compound (83), 1-(1-hydroxy-5-isoquinolinesulfonyl)homopiperazine], the pEC50 in data set [1] (read-out: ED50) was 5.52. In data set [2], the “ΔPmax (maximally reduced blood pressure)” value came to 42 mmHg. Also, the “Increase in femoral artery blood flow” value with femoral artery (0.3 mg/kg) was determined as 30%. For the same compound, in the data set with vertebral artery (0.3 mg/kg), the “Increase in vertebral artery blood flow” value is recorded as 48%. Besides, the “Increase in diameter of basilar artery” value in the data set on basilar artery (3 mg/kg) turned out to be 19%; in the data set with basilar artery (10 mg/kg), 20%. In “Acute Toxicity”, this compound gave a 50% lethal dose (LD50) of 145 mg/kg.
For `O=S(=O)(c1cccc2cnccc12)N1CCNCC1` [compound 2, reference compound], in data set [2], the “ΔPmax (maximally reduced blood pressure)” value is recorded as 11 mmHg. For the same compound, the results for the “Increase in femoral artery blood flow” value in the data set with femoral artery (0.3 mg/kg) and in the data set with femoral artery (1 mg/kg) were 20% and 69%, respectively. The “Increase in vertebral artery blood flow” value in the data set on vertebral artery (0.3 mg/kg) is given as 36%; in the data set with vertebral artery (1 mg/kg), 98%. The same compound registered an LD50 in “Acute Toxicity” of 29 mg/kg.
In turn, `N=C(N)NCCNS(=O)(=O)c1cccc2cnccc12` [compound 4, reference compound] registered a 50% lethal dose (LD50) in “Acute Toxicity” of 48 mg/kg.
